{"source": "patent US11225462B2", "about": "“Crystal forms of oxypyridine amide derivative and preparation method therefor” (JIANGSU HENGRUI MEDICINE CO., LTD., priority 2018, dated 2022)", "origin": "cited, not measured here", "key": {"FXIa": {"target": "FXIa (Homo sapiens, UniProt P03951)", "sequence (P03951 388-625 limits assumed)": "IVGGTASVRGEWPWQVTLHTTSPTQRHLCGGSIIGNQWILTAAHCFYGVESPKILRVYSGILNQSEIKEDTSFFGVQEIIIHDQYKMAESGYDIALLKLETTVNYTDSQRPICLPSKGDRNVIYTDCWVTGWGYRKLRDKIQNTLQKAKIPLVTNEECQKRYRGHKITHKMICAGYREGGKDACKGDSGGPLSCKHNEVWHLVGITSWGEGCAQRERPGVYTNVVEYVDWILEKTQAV", "sequence (P03951 19-387 partner limits assumed)": "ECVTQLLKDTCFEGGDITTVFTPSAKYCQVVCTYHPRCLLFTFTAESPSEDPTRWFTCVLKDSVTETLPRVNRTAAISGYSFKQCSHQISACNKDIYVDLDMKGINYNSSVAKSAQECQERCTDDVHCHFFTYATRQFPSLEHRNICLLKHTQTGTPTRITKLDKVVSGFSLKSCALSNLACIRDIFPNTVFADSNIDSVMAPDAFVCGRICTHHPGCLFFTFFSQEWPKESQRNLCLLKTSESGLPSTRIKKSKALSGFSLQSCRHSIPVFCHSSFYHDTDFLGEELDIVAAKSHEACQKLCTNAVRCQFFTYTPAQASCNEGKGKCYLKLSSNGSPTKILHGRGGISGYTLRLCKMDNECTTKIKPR", "settings": "reported in WO 2018041122; cited from earlier work"}, "[1]": {"settings": "reported in WO 2018041122; cited from earlier work"}, "human blood": {"test_system": "human blood", "settings": "reported in WO 2018041122; cited from earlier work"}}, "data": [{"smiles": "CCC(=O)c1ccc(Cl)cc1-c1cc(=O)n([C@@H](CCOC(C)(C)C)C(=O)Nc2ccc(C(=O)O)cc2)cc1OC", "note": "[compound of formula (I), (S)-4-(4-(tert-butoxy)-2-(4-(5-chloro-2-propionylphenyl)-5-methoxy-2-oxopyridin-1(2H)-yl)butanamido)benzoic acid]", "values": [{"measurement": "inhibitory effect on FXIa", "setting": "FXIa", "value": "significant inhibitory effect"}, {"measurement": "pharmacokinetic absorption", "setting": "[1]", "value": "good pharmacokinetic absorption"}, {"measurement": "anticoagulant effect on human blood", "setting": "human blood", "value": "significant anticoagulant effect"}]}]}
